The values below come from article doi:10.1101/2024.09.04.611205v1 (biorxiv, 2024).

SMILES strings stand for the structures.

In test [1] the target is T1, cyclooxygenase 2 (COX-2) (Homo sapiens, UniProt P35354).
T1 sequence (P35354 18-604): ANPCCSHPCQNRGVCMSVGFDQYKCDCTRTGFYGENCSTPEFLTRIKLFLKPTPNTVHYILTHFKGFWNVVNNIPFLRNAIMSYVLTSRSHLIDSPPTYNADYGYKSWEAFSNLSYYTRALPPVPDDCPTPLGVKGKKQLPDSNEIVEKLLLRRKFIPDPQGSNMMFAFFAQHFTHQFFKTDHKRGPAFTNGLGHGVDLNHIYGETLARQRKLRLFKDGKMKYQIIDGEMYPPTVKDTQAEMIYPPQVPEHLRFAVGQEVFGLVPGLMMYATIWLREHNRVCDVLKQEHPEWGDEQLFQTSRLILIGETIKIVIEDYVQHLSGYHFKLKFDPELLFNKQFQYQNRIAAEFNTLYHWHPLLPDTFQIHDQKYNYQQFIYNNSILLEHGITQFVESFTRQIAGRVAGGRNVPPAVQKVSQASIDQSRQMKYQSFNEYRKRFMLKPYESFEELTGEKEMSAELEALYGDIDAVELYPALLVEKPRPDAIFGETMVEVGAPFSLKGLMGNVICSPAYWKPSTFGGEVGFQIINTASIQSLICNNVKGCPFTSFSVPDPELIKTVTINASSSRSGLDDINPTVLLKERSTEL
Description: fluorimetric ADHP/resorufin assay. The format is biochemical. Particulars: read-out: % inhibition at 20 μM.

The target of test [2] is cyclooxygenase 1 (COX-1) (Homo sapiens, UniProt P23219). Description: fluorimetric ADHP/resorufin assay. The format is biochemical. Conditions: read-out: % inhibition at 20 μM.
Chain of cyclooxygenase 1 (COX-1) (P23219 24-599): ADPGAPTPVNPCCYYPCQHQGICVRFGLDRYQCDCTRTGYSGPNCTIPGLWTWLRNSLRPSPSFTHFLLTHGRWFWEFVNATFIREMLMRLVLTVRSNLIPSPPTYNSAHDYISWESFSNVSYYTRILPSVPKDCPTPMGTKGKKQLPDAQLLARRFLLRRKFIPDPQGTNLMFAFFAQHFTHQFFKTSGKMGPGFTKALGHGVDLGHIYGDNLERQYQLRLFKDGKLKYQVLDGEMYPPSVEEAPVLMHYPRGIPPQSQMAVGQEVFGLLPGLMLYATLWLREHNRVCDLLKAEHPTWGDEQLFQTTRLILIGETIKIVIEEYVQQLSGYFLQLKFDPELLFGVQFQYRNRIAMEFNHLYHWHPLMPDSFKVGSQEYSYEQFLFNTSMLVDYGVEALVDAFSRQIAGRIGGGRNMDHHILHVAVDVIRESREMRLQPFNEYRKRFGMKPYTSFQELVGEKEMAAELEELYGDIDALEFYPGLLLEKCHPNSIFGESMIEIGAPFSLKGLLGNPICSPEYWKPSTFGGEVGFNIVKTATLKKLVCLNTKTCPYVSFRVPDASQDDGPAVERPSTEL

For the compound `Cc1cccc(-c2n[nH]cc2-c2ccc3ncccc3n2)n1` [RepSox], the inhibition at 20 µM was 13% in test [1] and 61% in test [2].
